Experimental data from ChEMBL document CHEMBL4507317, “Data for DCP probe BAY-899” (2021).

How the values were obtained:
[1] = system: Tyrosine-protein kinase ABL1 (Homo sapiens), P00519 [F317I]; conditions: Compound concentration 1000.0 nM
[2] = system: Tyrosine-protein kinase ABL1 (Homo sapiens), P00519 [T315I]; conditions: Compound concentration 1000.0 nM
[3] = molecular target: Tyrosine-protein kinase ABL1 (Homo sapiens) (UniProt P00519); conditions: Compound concentration 1000.0 nM
[4] = molecular target: Serine/threonine-protein kinase BRSK1 (Homo sapiens) (UniProt Q8TDC3); conditions: Compound concentration 1000.0 nM
[5] = molecular target: Cyclin-dependent kinase 11B (Homo sapiens) (UniProt P21127); conditions: Compound concentration 1000.0 nM
[6] = molecular target: Macrophage colony-stimulating factor 1 receptor (Homo sapiens) (UniProt P07333); conditions: Compound concentration 1000.0 nM
[7] = molecular target: Casein kinase I isoform alpha-like (Homo sapiens) (UniProt Q8N752); conditions: Compound concentration 1000.0 nM
[8] = molecular target: Casein kinase II subunit alpha (Homo sapiens) (UniProt P68400); conditions: Compound concentration 1000.0 nM
[9] = molecular target: Serine/threonine-protein kinase MRCK gamma (Homo sapiens) (UniProt Q6DT37); conditions: Compound concentration 1000.0 nM
[10] = molecular target: Serine/threonine-protein kinase 17B (Homo sapiens) (UniProt O94768); conditions: Compound concentration 1000.0 nM
[11] = system: Epidermal growth factor receptor (Homo sapiens), P00533 [UNDEFINED MUTATION]; conditions: Compound concentration 1000.0 nM
Epidermal growth factor receptor (Homo sapiens), P00533 [UNDEFINED MUTATION], sequence (P00533 whole entry, looked up, change not shown): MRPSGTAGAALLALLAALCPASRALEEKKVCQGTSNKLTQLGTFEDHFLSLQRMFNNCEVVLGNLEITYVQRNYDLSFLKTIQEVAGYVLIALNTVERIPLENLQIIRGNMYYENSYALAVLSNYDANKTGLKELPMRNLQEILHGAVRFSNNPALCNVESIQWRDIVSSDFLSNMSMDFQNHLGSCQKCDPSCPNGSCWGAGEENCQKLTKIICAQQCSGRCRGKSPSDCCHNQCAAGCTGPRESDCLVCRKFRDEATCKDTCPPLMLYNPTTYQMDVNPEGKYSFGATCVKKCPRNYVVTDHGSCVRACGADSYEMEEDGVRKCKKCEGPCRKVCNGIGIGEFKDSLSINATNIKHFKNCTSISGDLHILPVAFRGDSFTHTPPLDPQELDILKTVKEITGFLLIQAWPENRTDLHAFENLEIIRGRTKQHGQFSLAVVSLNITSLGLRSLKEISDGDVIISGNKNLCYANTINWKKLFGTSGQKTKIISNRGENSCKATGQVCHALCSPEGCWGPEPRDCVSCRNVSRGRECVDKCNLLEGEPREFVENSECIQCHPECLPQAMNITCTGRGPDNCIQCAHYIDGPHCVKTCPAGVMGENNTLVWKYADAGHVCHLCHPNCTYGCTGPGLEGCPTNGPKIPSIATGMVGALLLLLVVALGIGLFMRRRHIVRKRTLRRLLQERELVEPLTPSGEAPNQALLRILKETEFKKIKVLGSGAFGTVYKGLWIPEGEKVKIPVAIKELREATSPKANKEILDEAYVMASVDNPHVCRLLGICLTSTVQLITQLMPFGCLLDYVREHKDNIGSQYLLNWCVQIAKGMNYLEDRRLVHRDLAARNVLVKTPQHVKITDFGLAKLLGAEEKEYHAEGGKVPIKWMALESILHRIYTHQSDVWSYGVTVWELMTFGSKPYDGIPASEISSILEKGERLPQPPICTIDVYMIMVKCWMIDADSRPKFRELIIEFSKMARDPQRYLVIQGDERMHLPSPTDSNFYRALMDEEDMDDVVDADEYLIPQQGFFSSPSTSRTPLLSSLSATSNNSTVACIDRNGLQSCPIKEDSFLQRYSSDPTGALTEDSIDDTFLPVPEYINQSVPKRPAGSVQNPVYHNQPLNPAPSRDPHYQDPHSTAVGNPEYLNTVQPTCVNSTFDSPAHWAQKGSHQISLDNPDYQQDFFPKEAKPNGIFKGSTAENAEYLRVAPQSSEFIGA

[12] = system: Epidermal growth factor receptor (Homo sapiens), P00533 [UNDEFINED MUTATION]; conditions: Compound concentration 1000.0 nM; remark: listed apart in the source
[13] = molecular target: Ephrin type-A receptor 1 (Homo sapiens) (UniProt P21709); conditions: Compound concentration 1000.0 nM
[14] = molecular target: Ephrin type-B receptor 3 (Homo sapiens) (UniProt P54753); conditions: Compound concentration 1000.0 nM
[15] = molecular target: Receptor tyrosine-protein kinase erbB-2 (Homo sapiens) (UniProt P04626); conditions: Compound concentration 1000.0 nM
Receptor tyrosine-protein kinase erbB-2 (Homo sapiens), sequence (P04626 whole entry): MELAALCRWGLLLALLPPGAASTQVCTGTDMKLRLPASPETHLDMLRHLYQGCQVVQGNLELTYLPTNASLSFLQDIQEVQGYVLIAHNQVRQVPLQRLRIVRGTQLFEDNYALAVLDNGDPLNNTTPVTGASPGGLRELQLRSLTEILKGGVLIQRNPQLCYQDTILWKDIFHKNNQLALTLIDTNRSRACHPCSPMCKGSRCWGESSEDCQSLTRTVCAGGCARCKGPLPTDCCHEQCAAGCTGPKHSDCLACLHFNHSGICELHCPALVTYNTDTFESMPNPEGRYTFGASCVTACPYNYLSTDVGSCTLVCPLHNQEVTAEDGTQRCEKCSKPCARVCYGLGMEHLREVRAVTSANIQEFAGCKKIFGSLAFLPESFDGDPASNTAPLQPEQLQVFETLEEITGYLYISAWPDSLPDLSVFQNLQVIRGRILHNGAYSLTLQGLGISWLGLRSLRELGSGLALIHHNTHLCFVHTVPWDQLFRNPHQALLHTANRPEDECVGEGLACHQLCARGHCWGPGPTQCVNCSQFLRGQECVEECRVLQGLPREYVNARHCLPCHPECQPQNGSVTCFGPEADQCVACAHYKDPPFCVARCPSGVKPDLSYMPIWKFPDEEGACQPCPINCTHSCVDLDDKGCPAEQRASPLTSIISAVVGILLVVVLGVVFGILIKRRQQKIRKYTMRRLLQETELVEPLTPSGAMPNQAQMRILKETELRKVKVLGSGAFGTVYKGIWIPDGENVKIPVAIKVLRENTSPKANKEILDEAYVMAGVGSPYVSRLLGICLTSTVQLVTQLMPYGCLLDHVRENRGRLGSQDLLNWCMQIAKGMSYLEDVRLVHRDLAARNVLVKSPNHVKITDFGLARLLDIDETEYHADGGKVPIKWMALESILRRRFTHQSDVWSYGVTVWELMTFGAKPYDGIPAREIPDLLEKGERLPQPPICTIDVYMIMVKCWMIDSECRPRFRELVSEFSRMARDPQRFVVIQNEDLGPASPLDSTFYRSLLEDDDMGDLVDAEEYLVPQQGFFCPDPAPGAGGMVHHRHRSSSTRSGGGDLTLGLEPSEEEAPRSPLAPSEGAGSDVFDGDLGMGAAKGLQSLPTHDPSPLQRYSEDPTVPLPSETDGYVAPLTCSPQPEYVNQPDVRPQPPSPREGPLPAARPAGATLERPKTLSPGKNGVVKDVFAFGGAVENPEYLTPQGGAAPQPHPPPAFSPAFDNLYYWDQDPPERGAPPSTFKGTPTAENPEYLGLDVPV

[16] = molecular target: Focal adhesion kinase 1 (Homo sapiens) (UniProt Q05397); conditions: Compound concentration 1000.0 nM
Focal adhesion kinase 1 (Homo sapiens), sequence (Q05397 2-1052 limits assumed): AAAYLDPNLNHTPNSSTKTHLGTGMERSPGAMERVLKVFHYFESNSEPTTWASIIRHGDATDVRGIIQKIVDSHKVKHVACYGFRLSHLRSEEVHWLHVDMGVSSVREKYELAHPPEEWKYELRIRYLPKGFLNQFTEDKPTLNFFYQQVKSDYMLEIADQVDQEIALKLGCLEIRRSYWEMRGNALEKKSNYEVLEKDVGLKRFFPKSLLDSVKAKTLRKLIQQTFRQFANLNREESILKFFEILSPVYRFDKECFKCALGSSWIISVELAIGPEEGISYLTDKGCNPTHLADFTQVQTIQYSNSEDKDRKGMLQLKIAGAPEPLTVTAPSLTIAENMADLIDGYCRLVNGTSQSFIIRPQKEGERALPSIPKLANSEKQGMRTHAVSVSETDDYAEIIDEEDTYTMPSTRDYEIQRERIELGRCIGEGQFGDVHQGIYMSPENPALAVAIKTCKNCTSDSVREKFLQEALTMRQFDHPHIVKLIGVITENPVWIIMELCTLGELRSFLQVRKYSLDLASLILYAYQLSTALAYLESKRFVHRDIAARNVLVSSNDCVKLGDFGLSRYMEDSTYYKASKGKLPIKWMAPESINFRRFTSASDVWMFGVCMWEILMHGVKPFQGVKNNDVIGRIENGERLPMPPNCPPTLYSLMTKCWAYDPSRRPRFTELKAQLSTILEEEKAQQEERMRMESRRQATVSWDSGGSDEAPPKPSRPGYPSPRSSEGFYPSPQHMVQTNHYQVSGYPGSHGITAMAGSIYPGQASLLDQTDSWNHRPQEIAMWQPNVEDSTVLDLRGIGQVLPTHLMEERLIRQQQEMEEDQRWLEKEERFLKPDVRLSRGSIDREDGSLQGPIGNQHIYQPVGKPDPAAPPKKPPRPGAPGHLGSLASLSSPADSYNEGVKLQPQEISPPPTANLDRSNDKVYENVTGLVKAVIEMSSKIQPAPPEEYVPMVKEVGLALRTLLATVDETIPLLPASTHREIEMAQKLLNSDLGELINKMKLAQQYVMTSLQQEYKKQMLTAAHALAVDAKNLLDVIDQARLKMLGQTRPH

[17] = molecular target: Inhibitor of nuclear factor kappa-B kinase subunit alpha (Homo sapiens) (UniProt O15111); conditions: Compound concentration 1000.0 nM
[18] = molecular target: Inhibitor of nuclear factor kappa-B kinase subunit beta (Homo sapiens) (UniProt O14920); conditions: Compound concentration 1000.0 nM
[19] = molecular target: Mast/stem cell growth factor receptor Kit (Homo sapiens) (UniProt P10721); conditions: Compound concentration 1000.0 nM
Mast/stem cell growth factor receptor Kit (Homo sapiens), sequence (P10721 whole entry): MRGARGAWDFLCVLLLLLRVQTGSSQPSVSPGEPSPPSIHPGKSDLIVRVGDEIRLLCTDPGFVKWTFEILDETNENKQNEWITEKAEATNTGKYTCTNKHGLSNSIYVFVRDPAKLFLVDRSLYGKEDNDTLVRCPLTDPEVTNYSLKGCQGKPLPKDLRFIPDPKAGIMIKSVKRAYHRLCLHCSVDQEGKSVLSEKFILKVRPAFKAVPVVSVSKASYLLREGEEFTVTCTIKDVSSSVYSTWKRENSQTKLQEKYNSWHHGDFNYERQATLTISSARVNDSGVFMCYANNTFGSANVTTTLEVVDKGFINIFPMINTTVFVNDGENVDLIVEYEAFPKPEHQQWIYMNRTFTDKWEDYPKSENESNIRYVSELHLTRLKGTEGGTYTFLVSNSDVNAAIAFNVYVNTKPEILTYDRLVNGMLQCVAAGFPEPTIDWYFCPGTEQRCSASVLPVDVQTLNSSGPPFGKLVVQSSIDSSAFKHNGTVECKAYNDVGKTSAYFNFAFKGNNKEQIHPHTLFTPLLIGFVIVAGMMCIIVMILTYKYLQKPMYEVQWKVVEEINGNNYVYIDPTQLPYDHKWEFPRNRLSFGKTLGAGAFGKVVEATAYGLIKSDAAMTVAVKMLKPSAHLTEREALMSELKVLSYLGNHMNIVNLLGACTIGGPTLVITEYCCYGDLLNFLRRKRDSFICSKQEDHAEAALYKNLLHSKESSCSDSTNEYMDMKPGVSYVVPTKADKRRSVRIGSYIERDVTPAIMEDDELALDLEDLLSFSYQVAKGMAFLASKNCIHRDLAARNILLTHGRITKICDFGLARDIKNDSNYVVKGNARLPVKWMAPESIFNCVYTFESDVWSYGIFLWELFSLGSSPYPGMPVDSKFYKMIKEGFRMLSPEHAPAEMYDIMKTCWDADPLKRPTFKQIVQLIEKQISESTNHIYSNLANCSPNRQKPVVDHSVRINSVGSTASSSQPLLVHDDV

[20] = system: Mast/stem cell growth factor receptor Kit (Homo sapiens), P10721 [D816H]; conditions: Compound concentration 1000.0 nM
Mast/stem cell growth factor receptor Kit (Homo sapiens), P10721 [D816H], sequence (P10721 whole entry D816H): as the sequence (P10721 whole entry) above, with D816H counted along it

[21] = system: Mast/stem cell growth factor receptor Kit (Homo sapiens), P10721 [L576P]; conditions: Compound concentration 1000.0 nM
[22] = molecular target: Serine/threonine-protein kinase 4 (Homo sapiens) (UniProt Q13043); conditions: Compound concentration 1000.0 nM
[23] = molecular target: Serine/threonine-protein kinase mTOR (Homo sapiens) (UniProt P42345); conditions: Compound concentration 1000.0 nM
[24] = molecular target: Serine/threonine-protein kinase Nek2 (Homo sapiens) (UniProt P51955); conditions: Compound concentration 1000.0 nM
[25] = molecular target: Serine/threonine-protein kinase Nek6 (Homo sapiens) (UniProt Q9HC98); conditions: Compound concentration 1000.0 nM
[26] = molecular target: Serine/threonine-protein kinase Nek9 (Homo sapiens) (UniProt Q8TD19); conditions: Compound concentration 1000.0 nM
[27] = molecular target: Platelet-derived growth factor receptor beta (Homo sapiens) (UniProt P09619); conditions: Compound concentration 1000.0 nM
[28] = molecular target: Cyclin-dependent kinase 14 (Homo sapiens) (UniProt O94921); conditions: Compound concentration 1000.0 nM
[29] = system: Phosphatidylinositol 4,5-bisphosphate 3-kinase catalytic subunit alpha isoform (Homo sapiens), P42336 [C420R]; conditions: Compound concentration 1000.0 nM
[30] = molecular target: cAMP-dependent protein kinase catalytic subunit alpha (Homo sapiens) (UniProt P17612); conditions: Compound concentration 1000.0 nM
[31] = molecular target: cAMP-dependent protein kinase catalytic subunit beta (Homo sapiens) (UniProt P22694); conditions: Compound concentration 1000.0 nM
[32] = molecular target: Interferon-induced, double-stranded RNA-activated protein kinase (Homo sapiens) (UniProt P19525); conditions: Compound concentration 1000.0 nM
Interferon-induced, double-stranded RNA-activated protein kinase (Homo sapiens), sequence (P19525 whole entry): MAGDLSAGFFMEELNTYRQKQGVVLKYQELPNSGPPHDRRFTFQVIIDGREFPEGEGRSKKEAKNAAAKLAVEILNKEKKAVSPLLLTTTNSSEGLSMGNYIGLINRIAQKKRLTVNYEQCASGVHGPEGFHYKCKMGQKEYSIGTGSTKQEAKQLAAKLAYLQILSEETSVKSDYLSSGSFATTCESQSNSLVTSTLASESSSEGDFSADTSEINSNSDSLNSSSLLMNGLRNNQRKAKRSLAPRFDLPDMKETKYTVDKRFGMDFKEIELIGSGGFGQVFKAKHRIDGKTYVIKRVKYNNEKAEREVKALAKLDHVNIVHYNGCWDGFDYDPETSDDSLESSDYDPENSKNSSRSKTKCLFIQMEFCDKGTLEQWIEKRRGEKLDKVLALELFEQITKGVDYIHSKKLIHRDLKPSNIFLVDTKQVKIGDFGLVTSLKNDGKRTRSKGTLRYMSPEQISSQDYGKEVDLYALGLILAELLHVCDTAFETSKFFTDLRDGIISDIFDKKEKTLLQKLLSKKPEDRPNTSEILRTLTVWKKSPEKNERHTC

[33] = molecular target: Rho-associated protein kinase 2 (Homo sapiens) (UniProt O75116); conditions: Compound concentration 1000.0 nM
[34] = molecular target: Ribosomal protein S6 kinase alpha-1 (Homo sapiens) (UniProt Q15418); conditions: Compound concentration 1000.0 nM
[35] = molecular target: Vascular endothelial growth factor receptor 2 (Homo sapiens) (UniProt P35968); conditions: Compound concentration 1000.0 nM
[36] = molecular target: T1, 5-hydroxytryptamine receptor 1A (Homo sapiens) (UniProt P08908); conditions: Compound concentration 10.0 uM
T1 sequence (whole entry): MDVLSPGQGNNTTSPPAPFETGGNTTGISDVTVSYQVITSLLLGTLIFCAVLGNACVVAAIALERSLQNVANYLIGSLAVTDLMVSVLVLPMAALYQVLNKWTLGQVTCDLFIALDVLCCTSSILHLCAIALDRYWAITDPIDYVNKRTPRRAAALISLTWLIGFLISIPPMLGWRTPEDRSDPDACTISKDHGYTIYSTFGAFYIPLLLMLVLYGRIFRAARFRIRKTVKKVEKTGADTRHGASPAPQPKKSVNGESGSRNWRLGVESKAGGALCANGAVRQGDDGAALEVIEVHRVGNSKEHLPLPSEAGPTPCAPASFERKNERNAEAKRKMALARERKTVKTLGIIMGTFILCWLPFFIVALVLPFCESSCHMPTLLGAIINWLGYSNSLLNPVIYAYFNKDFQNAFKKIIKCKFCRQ

[37] = molecular target: Sodium-dependent serotonin transporter (Homo sapiens) (UniProt P31645); conditions: Compound concentration 10.0 uM
[38] = molecular target: Histamine H2 receptor (Homo sapiens) (UniProt P25021); conditions: Compound concentration 10.0 uM
[39] = molecular target: Alpha-2C adrenergic receptor (Homo sapiens) (UniProt P18825); conditions: Compound concentration 10.0 uM
Rattus norvegicus = species on record: Rattus norvegicus; conditions: Compound concentration 10.0 uM

O=C(Nc1cnc(Oc2ccc(F)cc2)nc1)N1CCc2ncccc2[C@@H]1c1ccc(F)cc1 [BAY-899]
inactive: residual activity [1] 99% | residual activity [2] 100% | residual activity [3] 94% | residual activity [4] 87% | residual activity [5] 94% | residual activity [6] 78% | residual activity [7] 82% | residual activity [8] 93% | residual activity [9] 98% | residual activity [10] 92% | residual activity [11] 86% | residual activity [12] 100% | residual activity [13] 100% | residual activity [14] 100% | residual activity [15] 80% | residual activity [16] 100% | residual activity [17] 100% | residual activity [18] 100% | residual activity [19] 100% | residual activity [20] 96% | residual activity [21] 100% | residual activity [22] 100% | residual activity [23] 100% | residual activity [24] 92% | residual activity [25] 100% | residual activity [26] 90% | residual activity [27] 100% | residual activity [28] 100% | residual activity [29] 100% | residual activity [30] 82% | residual activity [31] 85% | residual activity [32] 73% | residual activity [33] 100% | residual activity [34] 76% | residual activity [35] 88% | inhibition [36] -8.97% | inhibition [37] 25.5% | inhibition [38] 2.75% | inhibition [39] 8.55% | inhibition (Rattus norvegicus) 44.6%

O=C(Nc1ccc(Oc2ccc(F)cc2)cc1)N1CCc2ncccc2[C@H]1c1ccc(F)cc1 [BAY-897]
inactive: residual activity [1] 94% | residual activity [2] 98% | residual activity [3] 100% | residual activity [4] 100% | residual activity [5] 89% | residual activity [6] 90% | residual activity [7] 92% | residual activity [8] 99% | residual activity [9] 93% | residual activity [10] 89% | residual activity [11] 92% | residual activity [12] 100% | residual activity [13] 100% | residual activity [14] 100% | residual activity [15] 100% | residual activity [16] 100% | residual activity [17] 100% | residual activity [18] 100% | residual activity [19] 97% | residual activity [20] 89% | residual activity [21] 100% | residual activity [22] 99% | residual activity [23] 100% | residual activity [24] 93% | residual activity [25] 100% | residual activity [26] 88% | residual activity [27] 100% | residual activity [28] 94% | residual activity [29] 100% | residual activity [30] 95% | residual activity [31] 83% | residual activity [32] 100% | residual activity [33] 93% | residual activity [34] 92% | residual activity [35] 100% | inhibition [36] -3.56% | inhibition [37] 21.1% | inhibition [38] 7.29% | inhibition [39] 8.47% | inhibition (Rattus norvegicus) 33.4%
